Publication PMC7723751 (Bioorganic chemistry, 2020)
pIC50: −log10 of the molar value.

How the values were obtained:
Human sEH = target: T1, Human sEH (Homo sapiens, UniProt P34913); test: Human sEH inhibition assay; format: biochemical; details: sEH IC50, human sEH 1 nM, CMNPC 5 μM, pH 7.0, 30 °C
T1 sequence (P34913 1-555): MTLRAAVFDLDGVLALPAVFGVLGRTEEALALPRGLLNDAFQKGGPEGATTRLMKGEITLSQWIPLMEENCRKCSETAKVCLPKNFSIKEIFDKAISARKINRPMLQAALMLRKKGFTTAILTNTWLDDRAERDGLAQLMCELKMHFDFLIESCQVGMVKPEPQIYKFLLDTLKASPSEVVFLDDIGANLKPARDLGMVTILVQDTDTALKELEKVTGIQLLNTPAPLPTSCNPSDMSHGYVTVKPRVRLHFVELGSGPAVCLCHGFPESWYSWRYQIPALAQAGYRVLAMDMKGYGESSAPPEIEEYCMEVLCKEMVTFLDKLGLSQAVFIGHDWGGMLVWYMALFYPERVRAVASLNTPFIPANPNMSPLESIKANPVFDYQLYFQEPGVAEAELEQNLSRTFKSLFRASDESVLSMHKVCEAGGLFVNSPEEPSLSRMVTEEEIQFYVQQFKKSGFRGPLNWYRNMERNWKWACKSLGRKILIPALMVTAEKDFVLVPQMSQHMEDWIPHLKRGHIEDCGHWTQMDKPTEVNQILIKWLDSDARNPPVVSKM

human FAAH enzyme = target: T2, human FAAH enzyme (Homo sapiens, UniProt O00519); test: Human FAAH enzyme inhibition assay; format: biochemical
T2 sequence (O00519 1-579): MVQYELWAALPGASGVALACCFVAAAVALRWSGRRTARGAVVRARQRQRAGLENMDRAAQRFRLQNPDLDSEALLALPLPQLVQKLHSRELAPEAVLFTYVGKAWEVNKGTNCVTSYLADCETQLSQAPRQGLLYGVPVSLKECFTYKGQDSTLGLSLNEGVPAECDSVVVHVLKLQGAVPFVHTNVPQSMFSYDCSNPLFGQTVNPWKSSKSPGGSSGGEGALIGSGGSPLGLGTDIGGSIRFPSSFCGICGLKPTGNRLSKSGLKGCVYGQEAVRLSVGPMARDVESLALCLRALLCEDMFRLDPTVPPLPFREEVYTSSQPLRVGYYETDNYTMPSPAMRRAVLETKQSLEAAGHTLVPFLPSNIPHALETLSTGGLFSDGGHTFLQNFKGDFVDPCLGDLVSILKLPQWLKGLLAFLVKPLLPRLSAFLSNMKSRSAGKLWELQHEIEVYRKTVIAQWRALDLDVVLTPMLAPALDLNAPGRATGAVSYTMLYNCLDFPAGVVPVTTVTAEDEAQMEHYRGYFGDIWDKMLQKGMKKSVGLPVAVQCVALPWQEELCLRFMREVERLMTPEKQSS

Row | pIC50 (Human sEH) | pIC50 (human FAAH enzyme) | Compound
1 | 6.82 | 8.89 | O=C(Nc1ccc(-c2nc3ccccc3s2)cc1)C1CCN(S(=O)(=O)c2ccccc2F)CC1 [Compound 4-4, N-(4-(benzo[d]thiazol-2-yl)phenyl)-1-((2-fluorophenyl)sulfonyl)piperidine-4-carboxamide]
2 | 5.77 | 7.87 | O=C(Nc1ccc(-c2nc3ccccc3s2)cc1)C1CCN(S(=O)(=O)c2cccc(F)c2)CC1 [Compound 4-9, N-(4-(benzo[d]thiazol-2-yl)phenyl)-1-((3-fluorophenyl)sulfonyl)piperidine-4-carboxamide]
3 | 5.62 | 8.14 | O=C(Nc1ccc(-c2nc3ccccc3s2)cc1)C1CCN(S(=O)(=O)c2cccc(Cl)c2)CC1 [Compound 4-10, N-(4-(benzo[d]thiazol-2-yl)phenyl)-1-((3-chlorophenyl)sulfonyl)piperidine-4-carboxamide]
4 | 5.96 | 7.29 | O=C(Nc1ccc(-c2nc3ccccc3s2)cc1)C1CCN(S(=O)(=O)c2cccc(Br)c2)CC1 [Compound 4-11, N-(4-(benzo[d]thiazol-2-yl)phenyl)-1-((3-bromophenyl)sulfonyl)piperidine-4-carboxamide]
5 | 6.21 | 7.84 | COc1cccc(S(=O)(=O)N2CCC(C(=O)Nc3ccc(-c4nc5ccccc5s4)cc3)CC2)c1 [Compound 4-13, N-(4-(benzo[d]thiazol-2-yl)phenyl)-1-((3-methoxyphenyl)sulfonyl)piperidine-4-carboxamide]
6 | 6.15 | 6.59 | O=C(Nc1ccc(-c2nc3ccccc3s2)cc1)C1CCN(S(=O)(=O)c2ccc(Cl)cc2)CC1 [Compound 4-15, N-(4-(benzo[d]thiazol-2-yl)phenyl)-1-((4-chlorophenyl)sulfonyl)piperidine-4-carboxamide]
7 | 6.24 | 6.73 | O=C(Nc1ccc(-c2nc3ccccc3s2)cc1)C1CCN(S(=O)(=O)c2ccc(Br)cc2)CC1 [Compound 4-16, N-(4-(benzo[d]thiazol-2-yl)phenyl)-1-((4-bromophenyl)sulfonyl)piperidine-4-carboxamide]
8 | 6.43 | < 5.00 | Cc1ccc(S(=O)(=O)N2CCC(C(=O)Nc3ccc(-c4nc5ccccc5s4)cc3)CC2)cc1 [Compound 4-17, N-(4-(benzo[d]thiazol-2-yl)phenyl)-1-tosylpiperidine-4-carboxamide]
9 | 7.08 | < 5.00 | COc1ccc(S(=O)(=O)N2CCC(C(=O)Nc3ccc(-c4nc5ccccc5s4)cc3)CC2)cc1 [Compound 4-18, N-(4-(benzo[d]thiazol-2-yl)phenyl)-1-((4-methoxyphenyl)sulfonyl)piperidine-4-carboxamide]
10 | 6.71 | 7.94 | O=C(Nc1ccc(-c2nc3ccccc3s2)cc1)C1CCN(S(=O)(=O)c2ccc(F)cc2F)CC1 [Compound 4-19, N-(4-(benzo[d]thiazol-2-yl)phenyl)-1-((2,4-difluorophenyl)sulfonyl)piperidine-4-carboxamide]
11 | 7.44 | 8.00 | O=C(Nc1ccc(-c2nc3ccccc3s2)cc1)C1CCN(S(=O)(=O)c2ccc(Br)cc2Br)CC1 [Compound 4-21, N-(4-(benzo[d]thiazol-2-yl)phenyl)-1-((2,4-dibromophenyl)sulfonyl)piperidine-4-carboxamide]
12 | 5.96 | < 5.00 | O=C(Nc1ccc(-c2nc3ccccc3s2)cc1)C1CCN(S(=O)(=O)c2cc(F)cc(F)c2)CC1 [Compound 4-24, N-(4-(benzo[d]thiazol-2-yl)phenyl)-1-((3,5-difluorophenyl)sulfonyl)piperidine-4-carboxamide]

More lines, now with the values behind:

Row | Compound | pIC50 (Human sEH) | pIC50 (human FAAH enzyme)
13 | O=C(Nc1ccc(-c2nc3ccccc3s2)cc1)C1CCN(S(=O)(=O)c2cccs2)CC1 [Compound 4-1, N-(4-(benzo[d]thiazol-2-yl)phenyl)-1-(thiophen-2-ylsulfonyl)piperidine-4-carboxamide] | 6.38 | 7.80
14 | O=C(Nc1ccc(-c2nc3ccccc3s2)cc1)C1CCN(S(=O)(=O)c2cc(Br)c(Cl)s2)CC1 [Compound 4-2, N-(4-(benzo[d]thiazol-2-yl)phenyl)-1-((4-bromo-5-chlorothiophen-2-yl)sulfonyl)piperidine-4-carboxamide] | 5.23 | 5.57
15 | O=C(Nc1ccc(-c2nc3ccccc3s2)cc1)C1CCN(S(=O)(=O)c2ccccc2)CC1 [Compound 4-3, N-(4-(benzo[d]thiazol-2-yl)phenyl)-1-(phenylsulfonyl)piperidine-4-carboxamide] | 5.96 | 8.07
16 | O=C(Nc1ccc(-c2nc3ccccc3s2)cc1)C1CCN(S(=O)(=O)c2ccccc2Br)CC1 [Compound 4-6, N-(4-(benzo[d]thiazol-2-yl)phenyl)-1-((2-bromophenyl)sulfonyl)piperidine-4-carboxamide] | 7.62 | 8.21
17 | Cc1ccccc1S(=O)(=O)N1CCC(C(=O)Nc2ccc(-c3nc4ccccc4s3)cc2)CC1 [Compound 4-7, N-(4-(benzo[d]thiazol-2-yl)phenyl)-1-(o-tolylsulfonyl)piperidine-4-carboxamide] | 7.46 | 8.02
18 | COc1ccccc1S(=O)(=O)N1CCC(C(=O)Nc2ccc(-c3nc4ccccc4s3)cc2)CC1 [Compound 4-8, N-(4-(benzo[d]thiazol-2-yl)phenyl)-1-((2-methoxyphenyl)sulfonyl)piperidine-4-carboxamide] | 7.59 | 7.10
19 | Cc1cccc(S(=O)(=O)N2CCC(C(=O)Nc3ccc(-c4nc5ccccc5s4)cc3)CC2)c1 [Compound 4-12, N-(4-(benzo[d]thiazol-2-yl)phenyl)-1-(m-tolylsulfonyl)piperidine-4-carboxamide] | 6.03 | 8.15
20 | O=C(Nc1ccc(-c2nc3ccccc3s2)cc1)C1CCN(S(=O)(=O)c2ccc(F)cc2)CC1 [Compound 4-14, N-(4-(benzo[d]thiazol-2-yl)phenyl)-1-((4-fluorophenyl)sulfonyl)piperidine-4-carboxamide] | 5.89 | 7.11
21 | Cc1ccc(S(=O)(=O)N2CCC(C(=O)Nc3ccc(-c4nc5ccccc5s4)cc3)CC2)c(C)c1 [Compound 4-22, N-(4-(benzo[d]thiazol-2-yl)phenyl)-1-((2,4-dimethylphenyl)sulfonyl)piperidine-4-carboxamide] | 7.53 | 8.26
22 | COc1ccc(S(=O)(=O)N2CCC(C(=O)Nc3ccc(-c4nc5ccccc5s4)cc3)CC2)c(OC)c1 [Compound 4-23, N-(4-(benzo[d]thiazol-2-yl)phenyl)-1-((2,4-dimethoxyphenyl)sulfonyl)piperidine-4-carboxamide] | 6.74 | 7.44
23 | Cc1cc(C)cc(S(=O)(=O)N2CCC(C(=O)Nc3ccc(-c4nc5ccccc5s4)cc3)CC2)c1 [Compound 4-25, N-(4-(benzo[d]thiazol-2-yl)phenyl)-1-((3,5-dimethylphenyl)sulfonyl)piperidine-4-carboxamide] | 5.44 | < 5.00
24 | O=C(Nc1ccc(-c2nc3ccccc3s2)cc1)C1CCN(S(=O)(=O)c2c(F)cc(F)cc2F)CC1 [Compound 4-26, N-(4-(benzo[d]thiazol-2-yl)phenyl)-1-((2,4,6-trifluorophenyl)sulfonyl)piperidine-4-carboxamide] | 5.18 | 6.60
25 | O=C(Nc1ccc(-c2nc3ccccc3s2)cc1)C1CCN(S(=O)(=O)c2c(Cl)cc(Cl)cc2Cl)CC1 [Compound 4-27, N-(4-(benzo[d]thiazol-2-yl)phenyl)-1-((2,4,6-trichlorophenyl)sulfonyl)piperidine-4-carboxamide] | 5.89 | 6.57
26 | Cc1cc(C)c(S(=O)(=O)N2CCC(C(=O)Nc3ccc(-c4nc5ccccc5s4)cc3)CC2)c(C)c1 [Compound 4-28, N-(4-(benzo[d]thiazol-2-yl)phenyl)-1-(mesitylsulfonyl)piperidine-4-carboxamide] | 6.10 | 7.08
27 | CC(C)c1cc(C(C)C)c(S(=O)(=O)N2CCC(C(=O)Nc3ccc(-c4nc5ccccc5s4)cc3)CC2)c(C(C)C)c1 [Compound 4-29, N-(4-(benzo[d]thiazol-2-yl)phenyl)-1-((2,4,6-triisopropylphenyl)sulfonyl)piperidine-4-carboxamide] | 6.08 | 5.65
28 | O=C(Nc1ccc(-c2nc3ccccc3s2)cc1)C1CCN(S(=O)(=O)c2c(F)c(F)c(F)c(F)c2F)CC1 [Compound 4-30, N-(4-(benzo[d]thiazol-2-yl)phenyl)-1-((perfluorophenyl)sulfonyl)piperidine-4-carboxamide] | 5.57 | < 5.00
